Experimental data from patent US6875768B1, “Phthalamide derivatives, intermediates in the production thereof, and agricultural/horticultural insecticides and method for using the same” (Nihon Nohyako Co., Ltd., priority 1999, dated 2005).

Key:
[1] = system: diamond back moth (Plutella xylostella); assay type: in vivo; details: 1,000 ppm; Chinese cabbage seedling with eggs immersed about 30 seconds; counted six days after the immersion; 25° C.
From the text: Insecticidal effect on diamond back moth (Plutella xylostella)
Adult diamond back moths were released and allowed to oviposit on a Chinese cabbage seedling. […] Six days after the immersion, the hatched insects were counted. […] [formula] Criterion • A - - - Mortality 100% • B - - - Mortality 99-90% • C - - - Mortality 89-80% • D - - - Mortality 79-50%

[2] = system: Common cutworm (Spodoptera litura); assay type: in vivo; details: 500 ppm; cabbage leaf immersed about 30 seconds; second-instar larvae; eight days after the inoculation; 25° C.
From the text: Insecticidal Effect on Common cutworm (Spodoptera litura)

[3] = system: rice leafroller (Cnaphalocrosis medinalis); details: 500 ppm; rice lamina immersed about 30 seconds; third-instar larvae; four days after the inoculation; 25° C., humidity 70%
Description: Insecticidal effect on rice leafroller (Cnaphalocrosis medinalis)
After air-dryness, the lamina was placed in a plastic Petri dish with a diameter of 9 cm whose bottom had been covered with a wetted filter paper. The lamina was inoculated with third-instar larvae of rice leafroller, after which the dish was allowed to stand in a room thermostatted at 25° C. and having a humidity of 70%. Four days after the inoculation, the dead and alive were counted and the insecticidal effect was judged according to the criterion shown in Test Example 1. The test was carried out with triplicate groups of 10 insects.

SMILES	insecticidal effect (activity ranking by mortality) [1]	insecticidal effect (activity ranking by mortality) [2]	insecticidal effect (activity ranking by mortality) [3]
CC(C)NC(=O)c1c(Cl)cccc1C(=O)Nc1ccc(Oc2ccc(Br)cc2)nc1 [Q27-29]	B or higher	B or higher	B or higher
CSCC(C)NC(=O)c1c(I)cccc1C(=O)Nc1cnc(C(F)(C(F)(F)F)C(F)(F)F)cc1C (stereo not shown) [Q27-144, N^1-(4-methyl-2-heptafluoroisopropyl-pyridin-5-yl)-N^2-(1-methyl-2-methylthioethyl),-3-iodophthalamide]	B or higher	B or higher	B or higher
Cc1cc(Oc2ccc(Br)cc2)ncc1NC(=O)c1cccc(Cl)c1C(=O)NC(C)C [Q27-98]	B or higher	B or higher	B or higher
CC(C)NC(=O)c1c(I)cccc1C(=O)Nc1ccc(C(F)(C(F)(F)F)C(F)(F)F)nc1 [Q27-136]	B or higher	B or higher	B or higher
CC(C)CSc1ccc(NC(=O)c2c(Cl)cccc2C(=O)NC(C)C)cn1 [Q27-127]	B or higher	B or higher	B or higher
CC(C)NC(=O)c1cccc(Cl)c1C(=O)Nc1ccc(SC(C)C)nc1 [Q27-126]	B or higher	B or higher	B or higher
Cc1nc(C(F)(C(F)(F)F)C(F)(F)F)ccc1NC(=O)c1cccc(I)c1C(=O)NC(C)C [Q27-138]	B or higher	B or higher	B or higher
CC(C)NC(=O)c1c(I)cccc1C(=O)Nc1ccc(C(F)(F)C(F)(F)C(F)(F)F)nc1 [Q27-135]	B or higher	B or higher	B or higher
CC(C)(C)NC(=O)c1c(I)cccc1C(=O)Nc1ccc(C(F)(C(F)(F)F)C(F)(F)F)nc1 [Q27-139]	B or higher	B or higher	B or higher
Cc1cc(Cl)ncc1NC(=O)c1c(Cl)cccc1C(=O)NC(C)C [Q27-128]	B or higher	B or higher	B or higher
CCN(CC)C(=O)c1c(I)cccc1C(=O)Nc1ccc(C(F)(F)C(F)(F)C(F)(F)F)nc1Cl [Q27-129]	B or higher	B or higher	B or higher
CC(C)NC(=O)c1c(I)cccc1C(=O)Nc1ccc(C(F)(F)C(F)(F)F)nc1 [Q27-134]	B or higher	B or higher	B or higher
CCN(CC)C(=O)c1c(I)cccc1C(=O)Nc1ccc(Cl)nc1 [Q27-130]	B or higher	B or higher	B or higher
Cc1cc(Cl)ncc1NC(=O)c1cccc(Cl)c1C(=O)NC(C)C [Q27-81]	B or higher	B or higher	B or higher
CCN(CC)C(=O)c1c(I)cccc1C(=O)Nc1ccc(C(F)(F)C(F)(F)C(F)(F)F)nc1 [Q27-131]	B or higher	B or higher	B or higher
CC(C)(C)NC(=O)c1c(I)cccc1C(=O)Nc1ccc(C(F)(F)C(F)(F)C(F)(F)F)nc1 [Q27-141]	B or higher	B or higher	B or higher
CSCC(C)(C)NC(=O)c1c(I)cccc1C(=O)Nc1cnc(C(F)(C(F)(F)F)C(F)(F)F)cc1C [Q27-150]	B or higher	B or higher	–
C[S+]([O-])CC(C)(C)NC(=O)c1c(I)cccc1C(=O)Nc1cccnc1C(F)(C(F)(F)F)C(F)(F)F (stereo not shown) [Q27-238]	B or higher	B or higher	–
CSCC(C)(C)NC(=O)c1c(I)cccc1C(=O)Nc1ccc(NC(=O)C(F)(F)C(F)(F)F)nc1C [Q27-439]	B or higher	B or higher	–
CC(C)(CS(C)(=O)=O)NC(=O)c1c(I)cccc1C(=O)Nc1ccc(OC(C(F)(F)F)C(F)(F)F)nc1Cl [Q27-267]	B or higher	B or higher	–

SMILES	insecticidal effect (activity ranking by mortality) [1]	insecticidal effect (activity ranking by mortality) [2]	insecticidal effect (activity ranking by mortality) [3]
CSCC(C)(C)NC(=O)c1c(I)cccc1C(=O)Nc1ccc(C(F)(C(F)(F)F)C(F)(F)F)nc1Cl [Q27-234]	B or higher	B or higher	–
CC(C)(CS(C)(=O)=O)NC(=O)c1c(I)cccc1C(=O)Nc1ccc(C(F)(C(F)(F)F)C(F)(F)F)nc1Cl [Q27-236]	B or higher	B or higher	–
COc1nc(C(F)(C(F)(F)F)C(F)(F)F)ccc1NC(=O)c1cccc(I)c1C(=O)NC(C)C [Q27-242]	B or higher	B or higher	–
CC(C)NC(=O)c1c(I)cccc1C(=O)Nc1ccc(C(F)(C(F)(F)F)C(F)(F)F)nc1Cl [Q27-230]	B or higher	B or higher	–
Cc1nc(OC(C(F)(F)F)C(F)(F)F)ccc1NC(=O)c1cccc(Cl)c1C(=O)NC(C)C [Q27-297]	B or higher	B or higher	–
CSCC(C)(C)NC(=O)c1c(I)cccc1C(=O)Nc1ccc(C(F)(C(F)(F)F)C(F)(F)F)nc1 [Q27-233]	B or higher	B or higher	–
CC(C)NC(=O)c1c(I)cccc1C(=O)Nc1ccc(OC(F)(F)C(F)F)nc1Cl [Q27-387]	B or higher	B or higher	–
CSCC(C)NC(=O)c1c(I)cccc1C(=O)Nc1ccc(OC(F)(F)C(F)OC(F)(F)C(F)(F)C(F)(F)F)nc1Cl (stereo not shown) [Q27-407]	B or higher	B or higher	–
CSCC(C)NC(=O)c1c(I)cccc1C(=O)Nc1ccc(OCC(F)(F)C(F)(F)F)nc1C (stereo not shown) [Q27-414]	B or higher	B or higher	–
CC(C)(CS(C)(=O)=O)NC(=O)c1c(I)cccc1C(=O)Nc1cccnc1C(F)(C(F)(F)F)C(F)(F)F [Q27-239]	B or higher	B or higher	–
COc1nc(OC(C(F)(F)F)C(F)(F)F)ccc1NC(=O)c1cccc(I)c1C(=O)NC(C)(C)CSC [Q27-268]	B or higher	B or higher	–
Cc1nc(OC(C(F)(F)F)C(F)(F)F)ccc1NC(=O)c1ccccc1C(=O)NC(C)(C)C[S+](C)[O-] (stereo not shown) [Q27-289]	B or higher	B or higher	–
Cc1nc(OC(C(F)(F)F)C(F)(F)F)ccc1NC(=O)c1cccc([N+](=O)[O-])c1C(=O)NC(C)C [Q27-347]	B or higher	B or higher	–
CSCC(C)(C)NC(=O)c1c(I)cccc1C(=O)Nc1ccc(C(F)(C(F)(F)F)C(F)(F)F)nc1SC [Q27-245]	B or higher	B or higher	–
CSCC(C)(C)NC(=O)c1c(I)cccc1C(=O)Nc1cnc(C(F)(C(F)(F)F)C(F)(F)F)nc1C [Q32-19]	B or higher	B or higher	–
Cc1nc(OC(C(F)(F)F)C(F)(F)F)ccc1NC(=O)c1cccc([N+](=O)[O-])c1C(=O)NC(C)(C)CS(C)(=O)=O [Q27-353]	B or higher	B or higher	–
CC(C)NC(=O)c1c(I)cccc1C(=O)Nc1ccc(C(F)(C(F)(F)F)C(F)(F)F)nc1[S+](C)[O-] (stereo not shown) [Q27-247]	B or higher	B or higher	–
Cc1nc(OC(F)(F)C(F)OC(F)(F)C(F)(F)C(F)(F)F)ccc1NC(=O)c1cccc(I)c1C(=O)NC(C)C (stereo not shown) [Q27-397]	B or higher	B or higher	–
CSCC(C)(C)NC(=O)c1c(I)cccc1C(=O)Nc1ccc(OC(F)(F)C(F)F)nc1C [Q27-384]	B or higher	B or higher	–
